Assay results as given in PubChem BioAssay (NCI).
Several values for one entry are separate records, joined by “and”; a condition that tells them apart may be missing. Equal entries are not always repeated.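 Briefly, cells in 96-well plates were exposed to five compound concentrations for 48 h, and endpoints were estimated by linear interpolation. GI50: concentration for 50% inhibition of growth. The concentration for full growth arrest is given as TGI.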

Assays:
Test in all cases: inhibition of tumour cell growth, NCI panel, 48 h
SNB-19 CNS = test system: SNB-19 CNS
HT29 colon = test system: HT29 colon
SN12C renal = test system: SN12C renal
CCRF-CEM leukemia = test system: CCRF-CEM leukemia
MCF7 breast = test system: MCF7 breast
MOLT-4 leukemia = test system: MOLT-4 leukemia
HL-60(TB) leukemia = test system: HL-60(TB) leukemia
K-562 leukemia = test system: K-562 leukemia
OVCAR-4 ovarian = test system: OVCAR-4 ovarian
RPMI-8226 leukemia = test system: RPMI-8226 leukemia

CC[C@@]1(OC(=O)CN)C(=O)OCc2c1cc1n(c2=O)Cc2cc3c(N)c4c(cc3nc2-1)OCO4
GI50 (SNB-19 CNS): 0.000124 µM
TGI (SNB-19 CNS): > 100 µM
TGI (HT29 colon): > 100 µM
GI50 (SN12C renal): < 0.0001 µM
GI50 (CCRF-CEM leukemia): < 0.0001 µM
TGI (CCRF-CEM leukemia): 0.551 µM
GI50 (MCF7 breast): < 0.0001 µM
GI50 (MOLT-4 leukemia): < 0.0001 µM
TGI (MOLT-4 leukemia): 0.146 µM
GI50 (HL-60(TB) leukemia): < 0.0001 µM
TGI (HL-60(TB) leukemia): 0.111 µM
GI50 (K-562 leukemia): 0.00254 µM
TGI (K-562 leukemia): 0.508 µM
GI50 (OVCAR-4 ovarian): 0.0507 µM and 0.0386 µM
TGI (OVCAR-4 ovarian): 0.356 µM and 0.658 µM
GI50 (RPMI-8226 leukemia): 0.00261 µM
TGI (RPMI-8226 leukemia): 0.719 µM

c1cnc2c(c1)Nc1cnncc1S2
TGI (SNB-19 CNS): > 100 µM
TGI (HT29 colon): > 100 µM
TGI (SN12C renal): > 100 µM
TGI (CCRF-CEM leukemia): > 100 µM
TGI (MCF7 breast): > 100 µM
TGI (MOLT-4 leukemia): > 100 µM
TGI (HL-60(TB) leukemia): > 100 µM
TGI (K-562 leukemia): > 100 µM
TGI (OVCAR-4 ovarian): > 100 µM
TGI (RPMI-8226 leukemia): > 100 µM

O=C(/C=C/c1cccc(B(O)O)c1)c1cccc(B(O)O)c1
GI50 (SNB-19 CNS): 2.13 µM
TGI (SNB-19 CNS): 10.4 µM
GI50 (HT29 colon): 1.68 µM
TGI (HT29 colon): 3.17 µM
GI50 (SN12C renal): 1.7 µM
TGI (SN12C renal): 3.61 µM
GI50 (CCRF-CEM leukemia): 0.445 µM
TGI (CCRF-CEM leukemia): 2.67 µM
GI50 (MCF7 breast): 0.742 µM
TGI (MCF7 breast): 7.58 µM
GI50 (MOLT-4 leukemia): 2.1 µM
TGI (MOLT-4 leukemia): 5.96 µM
GI50 (HL-60(TB) leukemia): 2.17 µM
TGI (HL-60(TB) leukemia): 6.33 µM
GI50 (K-562 leukemia): 2.13 µM
TGI (K-562 leukemia): 9 µM
GI50 (OVCAR-4 ovarian): 3.27 µM
TGI (OVCAR-4 ovarian): 22.2 µM
GI50 (RPMI-8226 leukemia): 2.25 µM
TGI (RPMI-8226 leukemia): 5.68 µM

O=[N+]([O-])c1ccc(-c2ccccc2)c([As](=O)(O)O)c1
GI50 (SNB-19 CNS): 18.7 µM
TGI (SNB-19 CNS): > 100 µM
GI50 (HT29 colon): 13.5 µM
TGI (HT29 colon): 32.2 µM
GI50 (SN12C renal): 12.7 µM
TGI (SN12C renal): > 100 µM
GI50 (CCRF-CEM leukemia): 4.42 µM
TGI (CCRF-CEM leukemia): 39.9 µM
GI50 (MCF7 breast): 3.75 µM
TGI (MCF7 breast): 16.1 µM
GI50 (MOLT-4 leukemia): 19.9 µM
TGI (MOLT-4 leukemia): > 100 µM
GI50 (HL-60(TB) leukemia): 43.5 µM
TGI (HL-60(TB) leukemia): > 100 µM
GI50 (K-562 leukemia): 4.89 µM
TGI (K-562 leukemia): > 100 µM
GI50 (OVCAR-4 ovarian): 14.6 µM
TGI (OVCAR-4 ovarian): 52 µM
GI50 (RPMI-8226 leukemia): 15.2 µM
TGI (RPMI-8226 leukemia): 62.9 µM

O=C(NO)c1cnc(N2CCN(S(=O)(=O)c3ccc4ccccc4c3)CC2)nc1
GI50 (SNB-19 CNS): 0.238 µM
TGI (SNB-19 CNS): 11.8 µM
GI50 (HT29 colon): 0.0344 µM
TGI (HT29 colon): 2.11 µM
GI50 (SN12C renal): 0.198 µM
TGI (SN12C renal): 13.2 µM
GI50 (CCRF-CEM leukemia): 0.0379 µM
TGI (CCRF-CEM leukemia): > 64.7 µM
GI50 (MCF7 breast): 0.0369 µM
TGI (MCF7 breast): > 76 µM
GI50 (MOLT-4 leukemia): 0.0424 µM
TGI (MOLT-4 leukemia): > 41.3 µM
GI50 (HL-60(TB) leukemia): 0.0457 µM
TGI (HL-60(TB) leukemia): 29.8 µM
GI50 (K-562 leukemia): 0.0363 µM
TGI (K-562 leukemia): > 40.9 µM
GI50 (OVCAR-4 ovarian): 0.081 µM
TGI (OVCAR-4 ovarian): 23.6 µM
GI50 (RPMI-8226 leukemia): 0.0208 µM
TGI (RPMI-8226 leukemia): 17.6 µM

CC(=O)OCC(=O)C1(O)C(C)CC2C3C=C(C)C4=Cc5c(cnn5-c5ccccc5)CC4(C)C3C(O)CC21C (centres undefined)
GI50 (SNB-19 CNS): 2.31 µM
TGI (SNB-19 CNS): 11.9 µM
GI50 (HT29 colon): 0.971 µM
TGI (HT29 colon): 2.42 µM
TGI (SN12C renal): 9.86 µM
TGI (CCRF-CEM leukemia): > 100 µM
GI50 (MCF7 breast): 1.47 µM
TGI (MCF7 breast): 5.22 µM
GI50 (MOLT-4 leukemia): 0.753 µM
TGI (MOLT-4 leukemia): > 22 µM
GI50 (HL-60(TB) leukemia): 2.44 µM
TGI (HL-60(TB) leukemia): 9.74 µM
GI50 (K-562 leukemia): 0.5 µM
TGI (K-562 leukemia): > 100 µM
GI50 (OVCAR-4 ovarian): 2.29 µM
TGI (OVCAR-4 ovarian): 20 µM
GI50 (RPMI-8226 leukemia): < 0.0345 µM

Brc1ccc(Br)nn1
GI50 (SNB-19 CNS): 3.77 µM
TGI (SNB-19 CNS): 15.5 µM
GI50 (HT29 colon): 3.38 µM
TGI (HT29 colon): > 22.3 µM
GI50 (SN12C renal): 1.62 µM
TGI (SN12C renal): 3.53 µM
GI50 (CCRF-CEM leukemia): 0.404 µM
TGI (CCRF-CEM leukemia): 3.65 µM
GI50 (MCF7 breast): 1.21 µM
TGI (MCF7 breast): 2.64 µM
GI50 (MOLT-4 leukemia): 1.69 µM
TGI (MOLT-4 leukemia): 5.48 µM
GI50 (HL-60(TB) leukemia): 1.22 µM
TGI (HL-60(TB) leukemia): 4.85 µM
GI50 (K-562 leukemia): 2.17 µM
TGI (K-562 leukemia): 10.3 µM
GI50 (OVCAR-4 ovarian): 1.29 µM
TGI (OVCAR-4 ovarian): 2.77 µM
GI50 (RPMI-8226 leukemia): 1.83 µM
TGI (RPMI-8226 leukemia): 6.44 µM

CCOC(=O)C(Cc1ccc(OC)cc1)C(=O)OCC
GI50 (SNB-19 CNS): 4.82 µM
TGI (SNB-19 CNS): 17.4 µM
GI50 (HT29 colon): 4.15 µM
TGI (HT29 colon): 25.4 µM
GI50 (SN12C renal): 5.77 µM
TGI (SN12C renal): 21.7 µM
GI50 (CCRF-CEM leukemia): 3.18 µM
TGI (CCRF-CEM leukemia): 28.2 µM
GI50 (MCF7 breast): 3.03 µM
TGI (MCF7 breast): 13.8 µM
GI50 (MOLT-4 leukemia): 3.2 µM
TGI (MOLT-4 leukemia): 11 µM
GI50 (HL-60(TB) leukemia): 2.26 µM
TGI (HL-60(TB) leukemia): 8.39 µM
GI50 (K-562 leukemia): 1.83 µM
TGI (K-562 leukemia): 11.8 µM
GI50 (OVCAR-4 ovarian): 6.23 µM
TGI (OVCAR-4 ovarian): 26.5 µM
GI50 (RPMI-8226 leukemia): 3.05 µM
TGI (RPMI-8226 leukemia): 14.3 µM

CCc1ccccc1-n1c(N)c(C#N)c(-c2ccc(OC)c(OC)c2)c(C#N)c1=O
GI50 (SNB-19 CNS): 20.5 µM
TGI (SNB-19 CNS): 59 µM
GI50 (HT29 colon): 41 µM
TGI (HT29 colon): > 100 µM
GI50 (SN12C renal): 19 µM
TGI (SN12C renal): 45.1 µM
GI50 (CCRF-CEM leukemia): > 100 µM
TGI (CCRF-CEM leukemia): > 100 µM
GI50 (MCF7 breast): 16.9 µM
TGI (MCF7 breast): 33.5 µM
GI50 (MOLT-4 leukemia): > 100 µM
TGI (MOLT-4 leukemia): > 100 µM
GI50 (HL-60(TB) leukemia): > 100 µM
TGI (HL-60(TB) leukemia): > 100 µM
GI50 (K-562 leukemia): > 100 µM
TGI (K-562 leukemia): > 100 µM
GI50 (OVCAR-4 ovarian): 23.1 µM
TGI (OVCAR-4 ovarian): 63 µM
GI50 (RPMI-8226 leukemia): 43.1 µM
TGI (RPMI-8226 leukemia): > 100 µM
